{
  "source": "patent US20130225694A1",
  "about": "“COMPOSITIONS AND METHODS OF INHIBITING RETINAL DEGENERATION” (Oklahoma Medical Research Foundation, priority 2012, published 2013)",
  "tested_on": "Rat Retina",
  "test": "Light-induced retinal degeneration in rats, systemic (IP) nitrone; ERG and ONL histology",
  "details": "rat, in vivo",
  "description": "Consistent with previous publications (1-2,5), a dose of 50 mg/kg PBN and S-PBN dissolved in saline was chosen for intraperitoneal injection in the rats in the treatment group. An equal volume of saline was injected into control rats.\nA light-stress paradigm of 2,700 lux for 6 hours was used to test the effect of PBN at different time points before (0.5 hour, 3 hours, 6 hours, 12 hours, 16 hours, and 24 hours) or after (0.5 hour and 3 hours) light exposure. The effect of S-PBN was tested using the same dose and protocol of PBN at 0.5 hours before light exposure.\nElectroretinography—After light exposure, rats were returned to their dim cyclic light (5-10 lux) environment for 7 days before ERG recordings were performed. Flash ERGs were recorded with the Diagnosys Espion E2 ERG System (Diagnosys, LLC, Lowell, Mass.). Rats were maintained in total darkness overnight and prepared for ERG recording under dim red light. They were anesthetized with ketamine (120 mg/kg body weight) and xylazine (6 mg/kg body weight) intramuscularly (IM). One drop of 10% (v/v) phenylephrine was applied to the cornea to dilate the pupil, and one drop of 0.5% (v/v) proparacaine HCl was applied for local anesthesia. Rats were kept on a heating pad at 37° C. during recordings. A gold electrode was placed on the cornea, a reference electrode was positioned in the mouth, and a ground electrode was placed on the foot; rats were then placed inside a Ganzfeld illuminating sphere. Responses were differentially amplified, averaged, and stored. For the assessment of rod photoreceptor function (scotopic ERG), five strobe flash stimuli were presented at flash intensities at −2.3, −1.3, 0.7, and 2.7 log cd·s/m^2. The amplitude of the a-wave was measured from the pre-stimulus baseline to the a-wave trough. The amplitude of the b-wave was measured from the trough of the a-wave to the peak of the b-wave. For the evaluation of cone function (photopic ERG), a strobe flash stimulus (3.3 log cd·s/m^2) was presented to dilated, light-adapted (5 minutes at 1.7 log cd·s/m^2) rats. The amplitude of the cone b-wave was measured from the trough of the a-wave to the peak of the b-wave.\nHistology—After ERG recordings, rats were killed by carbon dioxide asphyxiation for light microscopic evaluation of retinal structure. Immediately after death, eyes were excised, placed in fixative (4% (w/v) paraformaldehyde, 2% (v/v) trichloroacetic acid, 20% (v/v) isopropyl alcohol, 2% (v/v) zinc chloride, and 72% (v/v) distilled water), and embedded in paraffin. Sections of 5 μm were cut along the vertical meridian through the optic nerve and stained with hematoxylin and eosin (H&E).\nThe PBN derivatives were injected intraperitoneally (IP) into albino SD rats at 50 mg/kg body weight at 0.5 hours before the start of light-damage exposure at 2,700 lux for 6 hours. After the exposure, the rats were moved to their dim cyclic room to recover for a week. Retinal damage/protection was assessed by functional analysis by ERG and structural analysis of histological sections. Dark adapted (12 hour) and Light adapted (for 2 hour) retinas were utilized as controls.",
  "data": [
    {"smiles": "CC(C)(C)/[N+]([O-])=C/c1ccccc1", "note": "[Compound 1, α-phenyl-N-tert-butyl nitrone]", "values": [
      {"measurement": "% Protection (ONL, Inferior retina)", "result": 85.0, "unit": "%"},
      {"measurement": "% Protection (ONL, Superior retina)", "result": 87.1, "unit": "%"},
      {"measurement": "retention of photoreceptor cells", "result": "approximately 90%"}
    ]}
  ]
}
